Experimental data published in patent US12285460B2, “Pharmaceutical compositions” (RHYTHM PHARMACEUTICALS, INC., priority 2013, dated 2025).
Bridge positions count the residues as written; N and C are the ends. Square brackets hold non-standard residues; d marks the D form. Peptide text beside a SMILES is read from it. dPhe(4-F) = N[C@H](Cc1ccc(F)cc1)C(=O)O; Pen = CC(C)(S)[C@H](N)C(=O)O; hCys = N[C@@H](CCS)C(=O)O

Legend:
MC3R = biological target: T1, MC3R (Homo sapiens, UniProt P41968); assay: cAMP assay (EC50), MC3R; assay type: cell-based; conditions: EC50(MC3R)/EC50(MC4R)
T1 construct: host or cells: CHO-K1 (ECL assay)
Description: (§1) Stimulation of intracellular cyclic AMP (cAMP) levels by the peptides is determined in a dose dependent manner by an electrochemiluminescence (ECL) assay (Meso Scale Discovery, Gaithersburg, MD, USA; referred to hereinafter as “MSD”). Briefly, the CHO-K1 cells stably expressing the hMC receptor subtypes are suspended in RMPI 1640® assay buffer (RMPI 1640 buffer contains 0.5 mM IBMX, and 0.2% protein cocktail (MSD blocker A)). About 7,000 cells/well of the transgenic CHO-K1 cells stably expressing hMC receptor subtypes 1, 3, 4 or 5 are dispensed in 384-well Multi-Array plates (MSD) containing integrated carbon electrodes and coated with anti-cAMP antibody. Increasing concentrations of the test compounds are added and the cells are incubated for approximately 40 minutes at 37° C. A cell lysis buffer (HEPES-buffered saline solution with MgCl2 and Triton X-100® at pH 7.3) containing 0.2% protein cocktail and 2.5 nM TAG™ ruthenium-labeled cAMP (MSD) is added and the cells are incubated for approximately 90 minutes at room temperature. At the end of the second incubation period, the read buffer (Tris-buffered solution containing an ECL co-reactant and Triton X-100 at pH 7.8) is added and the cAMP levels in the cell lysates are immediately determined by ECL detection with a Sector Imager 6000 Reader® (MSD). Data are analyzed using a computer-assisted non-linear regression analysis (XL fit; IDBS) and reported as either an EC50 value.
(§2) Human MC4-R transfected cells are grown to confluence in 96 well plates (plating approximately 250,000 cells per well). The cells are treated in triplicate sets with 0.2 mM isobutylmethylxanthine (IBMX) and graded concentrations of the peptide or alternatively the peptide in the presence of 20 nM NDP-MSH. Cells similarly treated but with only 20 nM NDP-MSH serve as positive controls in a volume of 200 μL. A buffer blank serving as a negative control is also included. After incubation of one hour at 37° C., the cells are lysed by the addition of 50 μL of a cell lysis buffer. Total cAMP accumulated in 250 μL of this incubation medium is quantitated using a commercially available low pH cAMP assay kit (Amersham BioSciences) as per procedure specified by the kit supplier. […] The data for agonist is plotted and curve fitted to determine the EC50 value. A peptide showing accumulation in the same range as the negative control (buffer blank in the absence of alpha-MSH) is ineffective at the test concentration. A peptide showing attenuated accumulation is considered to be an antagonist if there is inhibition in cAMP when alpha-MSH is also present in the assay. Similar assay can be performed with hMC-1R, hMC-3R, and hMC-5R cells.
(§3) A chemiluminescence readout system that uses an enzyme fragment complementation (EFC) system with β-galactosidase (β-Gal) as the functional reporter system was used. This assay system for various melanocortin receptor systems is commercially available (cAMP Hunter GPCR assay system, Discoverx Corp, Fremont, CA). This assay utilizes the β-Gal enzyme that is split into two complementary portions; EA for Enzyme Acceptor and ED for Enzyme Donor. In the assay, the ED portion fused to cAMP is made to compete with cAMP generated by cells for binding to a cAMP-specific antibody. The EA is then added to form active β-Gal with any unbound ED-cAMP.
(§4) Briefly, 10000 cells per well are plated overnight and each well (cells incubated with 10 μl assay buffer) is then incubated with 4× serial concentration of the test compound in the cell assay buffer (5 μL) and cAMP antibody reagent (5 μL) for 30 min at 37° C. The cell lysis buffer (20 μL) containing ED-cAMP coupled enzyme fragment and the reporter substrate (Emerald II-Galacton Star, 5:1) is then added and incubated for 60 min at room temperature. Next, 20 μL of EA β-Gal fragment reagent is added.

MC5R = biological target: T2, MC5R (Homo sapiens, UniProt P33032); assay: cAMP assay (EC50), MC5R; assay type: cell-based; conditions: for Ratios of EC50 values MC5/4: EC50(MC5R)/EC50(MC4R)
T2 construct: host or cells: CHO-K1 (ECL assay)
Description: Stimulation of intracellular cyclic AMP (cAMP) levels by the peptides is determined in a dose dependent manner by an electrochemiluminescence (ECL) assay (Meso Scale Discovery, Gaithersburg, MD, USA; referred to hereinafter as “MSD”). Briefly, the CHO-K1 cells stably expressing the hMC receptor subtypes are suspended in RMPI 1640® assay buffer (RMPI 1640 buffer contains 0.5 mM IBMX, and 0.2% protein cocktail (MSD blocker A)). About 7,000 cells/well of the transgenic CHO-K1 cells stably expressing hMC receptor subtypes 1, 3, 4 or 5 are dispensed in 384-well Multi-Array plates (MSD) containing integrated carbon electrodes and coated with anti-cAMP antibody. Increasing concentrations of the test compounds are added and the cells are incubated for approximately 40 minutes at 37° C. A cell lysis buffer (HEPES-buffered saline solution with MgCl2 and Triton X-100® at pH 7.3) containing 0.2% protein cocktail and 2.5 nM TAG™ ruthenium-labeled cAMP (MSD) is added and the cells are incubated for approximately 90 minutes at room temperature. At the end of the second incubation period, the read buffer (Tris-buffered solution containing an ECL co-reactant and Triton X-100 at pH 7.8) is added and the cAMP levels in the cell lysates are immediately determined by ECL detection with a Sector Imager 6000 Reader® (MSD). Data are analyzed using a computer-assisted non-linear regression analysis (XL fit; IDBS) and reported as either an EC50 value. […]
as §3, with “ED-cAMP. This active enzyme then converts a chemiluminescent substrate to generate an output signal that is recorded on a standard microplate reader.” for “ED-cAMP.”
as §4

MC1R = biological target: T3, MC1R (Homo sapiens, UniProt Q01726); assay: cAMP assay (EC50), MC1R; assay type: cell-based; conditions: EC50(MC1R)/EC50(MC4R)
T3 construct: host or cells: CHO-K1 (ECL assay)
Description: as §1, §2, §3, §4

[1] = Pharmacokinetics of formulations after single subcutaneous bolus in Cynomolgus monkeys; assay type: in vivo; conditions: cynomolgus monkey, plasma, sc, 0.5 mg/kg body weight
Description: A group of Cynomolgus monkeys (average body weight range of 3 to 7 kg) were randomized into a group of 6 for each formulation described above and for Formulation 3A. Each monkey in the cohort was subcutaneously administered in the scapular area with a single bolus dose of a formulation calculated at 0.5 mg/kg body weight. Blood samples were taken at various time points staring at 30 minutes post dosing to 36 or 48 hours. The plasma was harvested and peptide drug concentration assays using LC-MS/MS technique. The pharmacokinetic data is presented in Table 3 below, and the pharmacokinetic profile is set forth graphically in FIG. 1, FIG. 2, and FIG. 3.

T3 sequence (Q01726 whole entry): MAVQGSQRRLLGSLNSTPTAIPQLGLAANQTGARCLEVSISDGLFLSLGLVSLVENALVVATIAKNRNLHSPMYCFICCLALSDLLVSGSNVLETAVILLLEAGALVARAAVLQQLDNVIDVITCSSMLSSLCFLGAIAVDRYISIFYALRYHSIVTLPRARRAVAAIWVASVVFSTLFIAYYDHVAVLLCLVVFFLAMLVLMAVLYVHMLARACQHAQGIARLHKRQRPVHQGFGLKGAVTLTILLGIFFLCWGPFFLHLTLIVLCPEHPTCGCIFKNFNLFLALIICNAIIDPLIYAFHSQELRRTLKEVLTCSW
T1 sequence (P41968 whole entry): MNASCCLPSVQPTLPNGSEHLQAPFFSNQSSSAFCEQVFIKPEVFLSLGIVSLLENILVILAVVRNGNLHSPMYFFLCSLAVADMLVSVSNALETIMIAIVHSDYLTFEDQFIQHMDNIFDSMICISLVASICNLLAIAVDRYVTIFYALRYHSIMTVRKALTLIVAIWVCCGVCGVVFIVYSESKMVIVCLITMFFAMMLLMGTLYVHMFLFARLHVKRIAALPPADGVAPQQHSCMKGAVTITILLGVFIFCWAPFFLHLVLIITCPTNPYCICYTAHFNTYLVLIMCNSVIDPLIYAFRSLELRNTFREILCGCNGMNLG
T2 sequence (P33032 whole entry): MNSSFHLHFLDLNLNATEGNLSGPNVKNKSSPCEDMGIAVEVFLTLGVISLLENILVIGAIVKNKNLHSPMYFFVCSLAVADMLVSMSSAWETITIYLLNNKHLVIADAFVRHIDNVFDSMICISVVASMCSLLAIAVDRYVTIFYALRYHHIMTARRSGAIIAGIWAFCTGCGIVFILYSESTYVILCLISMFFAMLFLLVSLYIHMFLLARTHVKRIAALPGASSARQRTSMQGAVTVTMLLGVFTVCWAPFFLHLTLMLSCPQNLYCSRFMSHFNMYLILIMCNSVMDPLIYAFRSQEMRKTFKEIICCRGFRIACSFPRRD

| Ratios of EC50 values MC3/4 (MC3R) | Ratios of EC50 values MC5/4 (MC5R) | Ratios of EC50 values MC1/4 (MC1R) | SMILES | Cmax [1] [ng/mL] | Tmax [1] [min] | EC50 (MC5R) [µM] |
| --- | --- | --- | --- | --- | --- | --- |
| >400 | 12 | 7 | CC(=O)N[C@@H](CCCNC(=N)N)C(=O)N[C@H]1CSSC[C@@H](C(N)=O)NC(=O)[C@H](Cc2c[nH]c3ccccc23)NC(=O)[C@H](CCCNC(=N)N)NC(=O)[C@@H](Cc2ccc(F)cc2)NC(=O)[C@@H]2CCCN2C(=O)[C@@H](C)NC1=O [Compound 14, Ac-Arg-cyclo[Cys-D-Ala-Pro-D-Phe(p-F)-Arg-Trp-Cys]-NH2] (Ac-RC[dA]P[dPhe(4-F)]RWC-NH2; disulfide 2-8) | – | – | – |
| 3.8 | 161 | 15 | CC(=O)N[C@@H](CCCNC(=N)N)C(=O)N[C@H]1CCSSC[C@@H](C(N)=O)NC(=O)[C@H](Cc2c[nH]c3ccccc23)NC(=O)[C@H](CCCNC(=N)N)NC(=O)[C@@H](Cc2ccccc2)NC(=O)[C@H](C)NC1=O [Compound 15, Ac-Arg-cyclo[hCys-Ala-D-Phe-Arg-Trp-Cys]-NH2] (Ac-R[hCys]A[dF]RWC-NH2; disulfide 2-7) | – | – | – |
| 420 | >1338 | 120 | CC(=O)N[C@@H](CCCNC(=N)N)C(=O)N[C@H]1CCSSC[C@@H](C(N)=O)NC(=O)[C@H](Cc2c[nH]c3ccccc23)NC(=O)[C@H](CCCNC(=N)N)NC(=O)[C@@H](Cc2ccccc2)NC(=O)[C@@H](C)NC1=O [Compound 16, Ac-Arg-cyclo[hCys-D-Ala-D-Phe-Arg-Trp-Cys]-NH2] (Ac-R[hCys][dA][dF]RWC-NH2; disulfide 2-7) | – | – | – |
| 17 | 159 | 15 | CC(=O)N[C@@H](CCCNC(=N)N)C(=O)N[C@H]1CCSSC(C)(C)[C@@H](C(N)=O)NC(=O)[C@H](Cc2c[nH]c3ccccc23)NC(=O)[C@H](CCCNC(=N)N)NC(=O)[C@@H](Cc2ccccc2)NC(=O)[C@@H](C)NC1=O [Compound 17, Ac-Arg-cyclo[hCys-D-Ala-D-Phe-Arg-Trp-Pen]-NH2] (Ac-R[hCys][dA][dF]RW[Pen]-NH2; disulfide 2-7) | – | – | – |
| – | – | – | CC(=O)N[C@@H](CCCNC(=N)N)C(=O)N[C@H]1CSSC[C@@H](C(N)=O)NC(=O)[C@H](Cc2c[nH]c3ccccc23)NC(=O)[C@H](CCCNC(=N)N)NC(=O)[C@@H](Cc2ccccc2)NC(=O)[C@H](Cc2c[nH]cn2)NC(=O)[C@@H](C)NC1=O [Peptide 1] | 1100 | 30 | 1.6 |

| SMILES | Ratios of EC50 values MC3/4 (MC3R) | Ratios of EC50 values MC5/4 (MC5R) | Ratios of EC50 values MC1/4 (MC1R) | Cmax [1] [ng/mL] | Tmax [1] [min] | EC50 (MC5R) [µM] |
| --- | --- | --- | --- | --- | --- | --- |
| CC(=O)N[C@@H](CCC(=O)O)C(=O)N[C@H]1CSSC[C@@H](C(N)=O)NC(=O)[C@H](Cc2c[nH]c3ccccc23)NC(=O)[C@H](CCCNC(=N)N)NC(=O)[C@@H](Cc2ccccc2)NC(=O)[C@H](Cc2c[nH]cn2)NC(=O)[C@H](C)NC1=O [Compound 22, Ac-Glu-cyclo[Cys-Ala-His-D-Phe-Arg-Trp-Cys]-NH2] (Ac-ECAH[dF]RWC-NH2; disulfide 2-8) | >20 | >2563 | >3 | – | – | – |
